Experimental data taken from patent publication US20040209954A1, “Compositions and methods for treating body malodor and fungal overgrowth in mammals” (priority 2003, published 2004).

Assays:
Type in all cases: cell-based
A. Niger = assay: Minimum inhibitory concentration (MIC) versus A. niger
Protocol: In the instance of anti-fungal activity, detailed analysis has been carried out with a prototypical pathogen, Trichophytone mentagrophytes. The testing was conducted and illustrates the activity of the ACQA agents that are the subject of this invention. A Time Kill (D-Value) study (ASTM protocol #1891-97 Standard Guide For Determination Of A Survival Curve For Antimicrobial Agents Against Selected Microorganisms And Calculation Of A D-value And Concentration Coefficient) was carried out to screen for the antifungal activity of glycopyrrolate (3%). Testing was done to determine the speed at which the product kills a representative test organism, which was Trichophyton mentagrophytes, a representative dermatophyte-causing species. Determination of the minimum inhibitory concentration (MIC) versus A. Niger, a prototypical fungi was also initiated. The vehicle was 65% water/35% ethanol.
(§1) Additional scientific investigation was completed to verify the drug class aspects of this invention. […] Specifically, Mepenzolate bromide and Ipratropium bromide were evaluated utilizing standardized microbiological test methods for minimum inhibitory concentration (MIC) versus A. niger and C. albicans. MICs in the range of 1% were observable, confirming the antifungal activity of this class of compound. Insofar as ipratropium is used for intranasal purposes, it is apparent that the discovered property is not predicted by any known attribute of this class of drugs.

C. albicans = assay: Minimum inhibitory concentration (MIC) versus C. albicans
Protocol: as §1

[1] = system: Trichophyton mentagrophytes; assay: Time Kill (D-Value) study, antifungal; details: glycopyrrolate 3%, vehicle 65% water/35% ethanol
Description: (§2) In Vitro and in vivo tests can be used to show the efficacy of antimicrobial products. With appropriate controls and methods In Vitro tests are applicable to all products. The time-to-kill test is used to determine the killing kinetics and activity spectrum of antimicrobials. In this example, the test was, as is usual, performed in suspension. The principle is to place the product or agent in contact with an inoculum for a specified period of time. At the end of the contact time, the mixture is inactivated by dilution into neutralizing broth. Serial dilutions in appropriate broth are performed and the number of surviving bacterial observed on solid culture media. It is general practice to test agents so that the final concentration is representative of the use concentration of the product.
In the instance of anti-fungal activity, detailed analysis has been carried out with a prototypical pathogen, Trichophytone mentagrophytes. The testing was conducted and illustrates the activity of the ACQA agents that are the subject of this invention. A Time Kill (D-Value) study (ASTM protocol #1891-97 Standard Guide For Determination Of A Survival Curve For Antimicrobial Agents Against Selected Microorganisms And Calculation Of A D-value And Concentration Coefficient) was carried out to screen for the antifungal activity of glycopyrrolate (3%). […]

[2] = system: Corynebacterium vitaeruminis; assay: Time Kill (D-Value) study, antibacterial; details: glycopyrrolate 3%, vehicle 65% water/35% ethanol
Description: as §2
(§3) Similarly, In Vitro and In Vivo tests can be used to show the efficacy of antimicrobial products against bacterial species. Such a Time Kill (D-Value) study was conducted and illustrates the antibacterial activity of the ACQA agents that are the subject of this invention. In this case, the study was carried out to screen for the antibacterial activity of glycopyrrolate (3%) and triclosan (0.3%). Testing was done to determine the speed and MIC at which the product kills representative test organisms, which were Micrococcus luteous (syn ATTC 9341 changed to Kocuria rhizophila), Staphylococcos epidermidis and Corynebacterium vitaeruminis, representative odor-causing species. Once again, the vehicle was 65% water/35% ethanol.

[3] = system: Micrococcus luteous (syn ATTC 9341 changed to Kocuria rhizophila); assay: Time Kill (D-Value) study, antibacterial; details: glycopyrrolate 3%, vehicle 65% water/35% ethanol
Description: as §2, §3

[4] = system: Staphylococcos epidermidis; assay: Time Kill (D-Value) study, antibacterial; details: glycopyrrolate 3%, vehicle 65% water/35% ethanol
Description: as §2, §3

| Compound | MIC versus A. niger (A. Niger) | MIC versus C. albicans (C. albicans) | time to antifungal effect over and above vehicle in D Value study [1] | time to kill in D Value study [2] | time to kill in D Value study [3] | time to kill in D Value study [4] |
| --- | --- | --- | --- | --- | --- | --- |
| CC(C)[N+]1(C)[C@@H]2CC[C@H]1CC(OC(=O)C(CO)c1ccccc1)C2.[Br-] (stereo partly drawn) [Ipratropium bromide] | ~1% | ~1% |  |  |  |  |
| C[N+]1(C)CCCC(OC(=O)C(O)(c2ccccc2)c2ccccc2)C1 (stereo not drawn) [Mepenzolate bromide] | ~1% | ~1% |  |  |  |  |
| C[N+]1(C)CCC(OC(=O)C(O)(c2ccccc2)C2CCCC2)C1 (stereo not drawn) [glycopyrrolate] | > 0.1% |  | 24 min | 4 min | 4 min | 4 min |
